From patent US20240191211A1, “BIOLUMINESCENCE-TRIGGERED PHOTOCATALYTIC LABELING” (Promega Corporation, priority 2022, published 2024)
Several values for one entry are separate records, joined by “and”; a condition that tells them apart may be missing. Equal values may be shown once.

Legend:
[1] = test system: K562 cell lysate depleted of biotinylated proteins; assay: Photocatalytic protein labeling with azide-biotin analogs driven by HT178-cpNLuc-179:Ir-9049 in K562 lysate; type: biochemical; conditions: for light-independent background: 45 minutes incubation; for light-dependent background: LED 455 nm 10 minutes versus bioluminescence 20 minutes
Excerpt: To evaluate labeling efficiency, samples were collected, resolved on SDS-PAGE, transferred to a nitrocellulose membrane, and analyzed as described in Example 1. Unlike diazirene, light independent as well as light-dependent background was apparent for both LED and bioluminescence. […] These longer-lived intermediates can diffuse further before being quenched by water resulting in overall greater labeling radius and increased light-dependent background.
The aryl-azide-biotin analogs were further evaluated for efficiency and specificity of bioluminescence-triggered photocatalytic protein labeling as well as light-independent background (FIG. 21D). […] Samples were then collected, resolved on SDS-PAGE, transferred to a nitrocellulose membrane, and analyzed as described in Example 1. […] In addition, several substitutions to the phenyl ring increased labeling specificity to different extent likely by impeding the generation-kinetics and/or lifetime of the reactive intermediates resulting with an overall smaller labeling radius.
Subsequently, LED-triggered photocatalytic labeling of the proximal HT178-cpNLuc-179 was detected for all three analogs albeit with high light-dependent background. […] In addition, lifetime of photogenerated reactive intermediates resulted with a range of labeling specificities that would be useful for different applications designed to label a specific protein versus a neighboring environment.
The structures of the vinyl-naphthyl-azide-biotins and vinyl-quinoline-azide-biotins are shown in FIG. 26A, and their syntheses are included in Example 13. Absorbance profiles for 200 μM activatable labels in 2% DMSO were monitored on a SPARK multimode plate reader (FIG. 26 B-C). […] The naphthyl-azide analogs were further evaluated for their capacity to undergo bioluminescence-triggered photocatalytic protein labeling as well as for their light-dependent, light-independent, and catalyst-independent backgrounds (FIG. 26D). […] Bioluminescence was induced upon treatment with 100 μM fluorofurimazine for 20 minutes. To evaluate labeling efficiencies, samples were collected, resolved on SDS-PAGE, transferred to nitrocellulose membranes, and analyzed as described in Example 1. […] Furthermore, a methyl substitution on the vinyl group designed to inhibit Michael addition reduced background, especially for 9615, and increased labeling specificity. This reduced background was generally associated with a blue-shifted absorbance relative to the equivalent vinyl-naphthyl-azide analog.

[2] = Absorbance profile of photoreactive-biotins; type: physicochemical
Protocol: Absorbance profiles for 4 mM phenyl-diazirine-biotin and 20-fold lower concentration of phenyl-azide-biotin (i.e., 200 µM) in 8% or 1% DMSO, respectively, were monitored on a SPARK multimode plate reader (FIG. 20B).
Experiments were conducted during development of embodiments herein to explore structural modifications to the phenyl-azide moiety that could decrease the lifetime of its photogenerated intermediates thereby reducing light-dependent background and increasing labeling specificity. Modifications causing red shift absorbance and subsequently lower triplet state energy thereby enabling more efficient bioluminescence-triggered photocatalytic activation were also explored. […]
The structures of the vinyl-naphthyl-azide-biotins and vinyl-quinoline-azide-biotins are shown in FIG. 26A, and their syntheses are included in Example 13. Absorbance profiles for 200 μM activatable labels in 2% DMSO were monitored on a SPARK multimode plate reader (FIG. 26 B-C). […] The naphthyl-azide analogs were further evaluated for their capacity to undergo bioluminescence-triggered photocatalytic protein labeling as well as for their light-dependent, light-independent, and catalyst-independent backgrounds (FIG. 26D). […] To evaluate labeling efficiencies, samples were collected, resolved on SDS-PAGE, transferred to nitrocellulose membranes, and analyzed as described in Example 1. […]

[3] = test system: K562 cell lysate depleted of biotinylated proteins; assay: Bioluminescence-triggered photocatalytic protein labeling with diazirine-biotin in K562 lysate; type: biochemical
Protocol: The two fusions orientations were further tethered to chloroalkane-catalyst conjugates and compared for their capacity to drive bioluminescence-triggered photocatalytic protein labeling (FIG. 16B). […] Bioluminescence was induced upon treatment with 10× fluorofurimazine at a final concentration of 100 µM while control wells remained untreated. Following a 15 minutes incubation, samples were collected, resolved on SDS-PAGE, transferred to a nitrocellulose membrane, and analyzed as described in Example 1. […]
Reactions comprising 100 μM diazirine-biotin, 0.1 mg/mL K562 cell lysate depleted of biotinylated proteins, and 60 nM conjugate were assembled in TBS pH 7.5 within wells of a white 96-well plate. […] Following a 15 minutes incubation, samples were collected, resolved on SDS-PAGE, transferred to a nitrocellulose membrane, and analyzed as described in Example 1. […]
This example summarizes the optimization of the bioluminescent photocatalytic system that provided an overall 900-fold increase in bioluminescence-triggered photocatalytic protein labeling (FIG. 18). […] Following a 20-minutes incubation, samples were collected, resolved on SDS-PAGE, transferred to a nitrocellulose membrane, and analyzed as described in Example 1 (FIG. 18A). […]

FKBP-HiBiT = assay: Photocatalytic labeling upon complementation of FKBP-HiBiT with LgBiT-HaloTag:Ir-9049; type: biochemical; conditions: HEK293 cell lysate; LED, furimazine or fluorofurimazine
Protocol: HEK293 cell lysate with estimated expression of 2000 nM FKBP-HiBiT was serially diluted into control HEK293 cell lysate to generate 4× lysate solutions with expression levels of 960 nM, 480 nM, 240 nM, and […] while maintaining constant concentration of total proteins. […] Following treatment with 10× diazirine-biotin at a final concentration of […], the UV-transparent plates were subjected to 455 nm radiation at 0-3.2 W for 15 min (Efficiency Aggregators biophotoreactor), and the white plate were further treated for 30 minutes with either furimazine or fluorofurimazine at a final concentration of 100 µM while control wells remained untreated. Samples were then collected, resolved on SDS-PAGE, transferred to a nitrocellulose membrane, and analyzed as described in Example 1. Light-dependent labeling of both LgBiT-HaloTag and FKBP-HiBiT were detected upon radiation or treatment with either furimazine or fluorofurimazine.

DNA and RNA = assay: LED-triggered singlet oxygen-dependent labeling of DNA and RNA; type: biochemical; conditions: compared to Ir-9049 driven activation of vinyl-naphthyl-azides and vinyl-quinoline-azides
Protocol: Plates remained in the dark (control) or irradiated at 455 nm (2% LED; ˜1.6 W) for 20 minutes using Efficiency Aggregators biophotoreactor. To evaluate covalent crosslinking efficiencies, reactions were cleaned from non-crosslinked activatable labels using Zeba column (ThermoFisher) before being spotted on nitrocellulose membranes using a slot blot apparatus. Membranes were blocked with 5% BSA (Promega) in TBST for 1 hour at room temperature and then incubated overnight at 4° C. with anti-biotin antibody (Invitrogen) in TBST. Next day, membranes were washed three times with TBST and then incubated for an hour with a secondary anti-goat-HRP-antibody (Jackson laboratories). Following three washes in TBST, membranes were treated with ECL substrate (Promega) and scanned on the chemiluminescence channel to detect DNA or RNA labeled with biotin.

[N-]=[N+]=Nc1ccc(C(=O)NCCOCCOCCOCCOCCNC(=O)CCCC[C@@H]2SC[C@@H]3NC(=O)N[C@@H]32)cc1 [Compound 9069]
labeling of proximal model protein and background ([1]; LED or bioluminescence, NanoLuc-HaloTag:Ir-9049 or HT178-cpNLuc-179:Ir-9049): relatively high background

C/C(=C\C(=O)NCCOCCOCCOCCOCCNC(=O)CCCC[C@@H]1SC[C@@H]2NC(=O)N[C@@H]21)c1ccc(N=[N+]=[N-])c(C#N)c1 [Compound 9422, N-((E)-18-(4-azido-3-cyanophenyl)-16-oxo-3,6,9,12-tetraoxa-15-azanonadec-17-en-1-yl)-5-((3aS,4S,6aR)-2-oxohexahydro-1H-thieno[3,4-d]imidazol-4-yl)pentanamide]
light-independent background [1]: significantly decreased
light-dependent background [1]: significantly reduced light-dependent background

C/C(=C\C(=O)NCCOCCOCCOCCOCCNC(=O)CCCC[C@@H]1SC[C@@H]2NC(=O)N[C@@H]21)c1ccc(N=[N+]=[N-])cc1 [Compound 9162]
light-independent background [1]: significantly decreased
light-dependent background [1]: highest light-dependent background
red shift absorbance ([2]; aryl-azide analogs compared to phenyl-azide-biotin 9069): 20 nm

[N-]=[N+]=Nc1ccc2cc(C(=O)NCCOCCOCCOCCOCCNC(=O)CCCC[C@@H]3SC[C@@H]4NC(=O)N[C@@H]43)ccc2c1 [Compound 9043]
light-independent background [1]: significantly decreased
absorbance λmax ([2]; 200 μM in 2% DMSO): 255 nm and 305 nm

Nc1cccc(-c2cn3c(=O)c(Cc4ccco4)nc-3c(Cc3ccccc3F)[nH]2)c1F [fluorofurimazine]
increase in total light output ([3]; filtered luminescence 610 nm/LP accumulated over 20 minutes, versus furimazine): 5 fold
increase in protein labeling ([3]; relative to preceding optimization step, 20 minutes): 5 fold
labeling of LgBiT-HaloTag and FKBP-HiBiT (FKBP-HiBiT): Highest labeling

[N-]=[N+]=Nc1ccc(C(=O)NCCOCCOCCOCCOCCNC(=O)CCCC[C@@H]2SC[C@@H]3NC(=O)N[C@@H]32)c(O)c1 [Compound 9046]
light-independent background [1]: significantly decreased

O=C(NCCOCCOCCCCCCCl)OCCOCCOCCOCCNC(=O)c1ccc2c(c1)C(=O)OC21c2ccc(O)c(Br)c2Oc2c1ccc(O)c2Br [PS-9850]
nucleic acid labeling via singlet oxygen generation (DNA and RNA): lower efficiencies
